Measurements from patent publication US10047084B2, “Imidazolone derivatives, pharmaceutical compositions and uses thereof” (BEIJING FORELANDPHARMA CO. LTD., priority 2013, dated 2018).

How the values were obtained:
[1] = test system: PC-3; assay: CTG cell survival assay, PC-3; assay type: cell-based; settings: Homo sapiens, PC-3 cells
Excerpt: (§1) 2. CTG Cell Survival Assay:
(§2) ATP is necessarily produced during the metabolic activities of viable cells, and there is a linear relationship between the content of ATP and the number of viable cells. Cell viability assay by CTG chemiluminescence is a general method for detecting the number of viable cells in the culture cells based on this principle. The addition of the CellTiter-Glo (CTG) reagent may induce cell lysis and produce chemiluminescent signals directly proportional to the amount of ATP in the well-plate, and thereby the cell proliferation activity in the well-plate can be measured by the reading values from the chemiluminescence.
(§3) 2.1 Experimental Materials and Instruments:
(§4) 2.4 Experimental Procedure: • 1.4.1 Cell Thawing: Cryogenic vials were removed from the liquid nitrogen container, directly immersed in a water bath at 37° C., and shaked from time to time to thaw. The cryogenic vials were removed from the water bath at 37° C., and transferred to the biosafe cabinet. Their lids were opened, and the cell suspensions were aspirated with pipettes, added to centrifuge tubes, and then added with more than 10 volumes of culture solution, mixed well; centrifuged for 5 min at 1000 rpm; the supernatant was discarded, and medium containing cell growth was added to resuspend cells. All cell suspensions were seeded to the T25 culture flasks and static cultured in an incubator at 37° C.; the culture solution were changed once on the next day, and continued to be cultured. • 2.4.2 Cell Passaging: After cells were grown to logarithmic phase and were 80%-90% confluent, cells were removed and placed in the biosafe cabinet, the old culture solution was discarded, and the cells were wetted and washed with PBS once or twice. An appropriate amount of 0.25% Trypsin-EDTA solution was added to the culture flasks. The flasks were placed in the carbon dioxide incubator at 37° C. for 2-5 min. An appropriate amount of cell growth medium containing 10% PBS was added to terminate the digestion, lightly swished, and transferred to the centrifuge tubes and centrifuged for 5 min at 1000 rpm. The cells were prepare (into cell suspensions for passaging and experimental use. • 2.4.3 Cell Plating • 2.4.3.1 A cell suspension was prepared: After cells were grown to logarithmic phase and were 80%-90% confluent, the cells were removed to the biosafe cabinet, and the old culture solution was discarded, then the cells were wetted and washed with PBS once or twice. An appropriate amount of 0.25% Trypsin-EDTA solution was added to the culture flask. The flask was placed in a carbon dioxide incubator at 37° C. for 2-5 min. An appropriate amount of the cell growth medium containing 10% PBS was added to terminate digestion, and was lightly swished. The solution was transferred to a centrifuge tube, centrifuged for 5 min at 1000 rpm, and counted. […] Secondly, 20 uM of the compound to be tested was diluted with the cell growth medium containing 0.2% DMSO in 3-fold dilution to obtain 9 concentrations, and there were 10 concentration gradients in total. • 2.4.4.3 Addition of the compounds to be tested: the prepared gradient dilution solutions of compounds to be tested were taken and added to the cell culture plate at 100 ul/well; at this point, the maximum concentration of compounds to be tested was 10 uM, and the concentration of DMSO was 0.1%.

[2] = test system: SK-BR3/BT474; assay: CTG cell survival assay, SK-BR3/BT474; assay type: cell-based; settings: SK-BR3/BT474 cells
Excerpt: as §1, §2, §3, §4

[3] = target: mTOR kinase (Homo sapiens (Human), UniProt P42345); assay: mTOR kinase activity assay (TR-FRET, GFP-4EBP1 substrate); assay type: biochemical; settings: read-out: Enzyme (mTOR) IC50
Chain of mTOR kinase (P42345 1360-2549): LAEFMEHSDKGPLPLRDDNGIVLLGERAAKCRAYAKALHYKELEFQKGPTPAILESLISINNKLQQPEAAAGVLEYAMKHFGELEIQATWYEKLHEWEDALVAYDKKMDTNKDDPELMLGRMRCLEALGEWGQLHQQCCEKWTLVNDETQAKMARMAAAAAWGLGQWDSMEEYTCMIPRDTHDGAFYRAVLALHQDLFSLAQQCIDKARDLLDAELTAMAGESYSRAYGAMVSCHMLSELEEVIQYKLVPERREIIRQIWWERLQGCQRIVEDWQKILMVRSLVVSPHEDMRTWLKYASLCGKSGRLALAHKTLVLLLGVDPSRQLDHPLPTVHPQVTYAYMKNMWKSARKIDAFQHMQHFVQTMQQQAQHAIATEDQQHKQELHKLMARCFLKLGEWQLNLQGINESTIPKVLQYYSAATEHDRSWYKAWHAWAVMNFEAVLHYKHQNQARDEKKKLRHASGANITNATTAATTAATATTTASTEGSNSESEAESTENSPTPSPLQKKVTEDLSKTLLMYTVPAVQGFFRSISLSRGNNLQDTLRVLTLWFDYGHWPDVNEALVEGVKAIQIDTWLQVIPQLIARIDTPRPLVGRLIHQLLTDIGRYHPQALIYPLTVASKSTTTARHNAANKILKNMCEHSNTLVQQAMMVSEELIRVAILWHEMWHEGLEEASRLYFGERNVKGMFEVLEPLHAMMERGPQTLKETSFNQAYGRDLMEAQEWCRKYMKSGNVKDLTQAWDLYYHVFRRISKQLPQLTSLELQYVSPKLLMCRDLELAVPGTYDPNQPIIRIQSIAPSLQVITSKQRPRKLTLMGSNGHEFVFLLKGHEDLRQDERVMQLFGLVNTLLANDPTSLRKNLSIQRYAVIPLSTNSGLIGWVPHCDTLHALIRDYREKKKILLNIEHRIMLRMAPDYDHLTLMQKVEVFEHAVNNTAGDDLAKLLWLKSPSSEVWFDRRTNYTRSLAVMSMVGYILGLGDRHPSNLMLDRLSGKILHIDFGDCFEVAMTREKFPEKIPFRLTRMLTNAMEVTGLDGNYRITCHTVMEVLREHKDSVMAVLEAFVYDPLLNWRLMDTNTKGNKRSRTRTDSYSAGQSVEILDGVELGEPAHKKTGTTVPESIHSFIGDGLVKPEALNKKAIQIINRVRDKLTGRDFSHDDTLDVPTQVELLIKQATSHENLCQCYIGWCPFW
Experimental: 1. mTOR Kinase Activity Assay: The inhibition of the mTOR protein kinase activity by the compounds was determined by the enzymatic activity assay in vitro. The detection kit supplied by Invitrogen was used to detect the inhibition of the activity of the mTOR […]. The principle of the assay was as follows: mTOR kinase, fluorescein-labeled substrate and ATP were mixed, and after the reaction, EDTA and terbium-labeled first antibody were added. During the chemical reaction process of the mTOR kinase, the antibody recognized the phosphorylated and fluorescein-labeled substrate, and then the “time-resolved fluorescence resonance energy transfer” (TR-FRET) effect was enhanced. TR-FRET effect was calculated as the ratio of signals from the acceptor fluorescein to signals from the donor terbium. The amount of the antibody bound to the tracer was directly proportional to the amount of the phosphorylated substrate after the reaction. In this way, the kinase activity can be detected. In this assay, the substrate of the mTOR kinase was green fluorescent protein-coupled 4E binding protein 1 (GFP-4EBP1).
1.1 Materials and Instruments:
4-Hydroxyethylpiperazine ethanesulfonic acid (HEPES, Sigma, Cat# SH3375), ethylene glycol-bis-(2-aminoethylether)-tetraacetic acid (EGTA, Sigma, Cat# E3889), manganese chloride (MnCl2, Sigma, Cat# M1787), Tween-20 (Tween-20, Amresco), 1,4-dithiothreitol (DTT, Merck, CB233155),

[4] = test system: MV-4-11; assay: CTG cell survival assay, MV-4-11; assay type: cell-based; settings: Homo sapiens, MV4-11, MV-4-11 cells
Excerpt: as §1, §2, §3
2.1.1 Experimental Materials: compounds to be tested, cell basal culture medium, RPMI Medium 1640 (Invitrogen, Cat#11875-093), fetal calf serum (FBS): Hyclone FETAL BOVINE SERUM DEFINED (Invitrogen, Cat#SH30070.03), antibiotics: Penicilin Streptomycin (Invitrogen, Cat#15140-122), phosphate buffer (Corning Cellgro, Cat#R21-040-CV), cell digestive solution: 0.25% Trypsin-EDTA (Invitrogen, Cat#25200-056), CTG detection kit: Promega, Cat#G7571, flat-bottom 96-well black bottom plate: NUNC, Cat#165305, T25 culture flask: NUNC, Cat#156367, T75 culture flask: NUNC, Cat#156439
2.2 Experimental Instruments: Carbon Dioxide Incubator, SANYO-MCO-20AIC, Biosafe Cabinet: BSC-1360-LIIA2, Table-Top High-Speed Refrigerated Centrifuge: SorvallST 16R, Microplate Rapid Oscillator: QB-9001, M3 Reader: SpectraMax M3, Microscope: OLYMPUS-CKX41/CKX31.
2.3 Preparation of Solutions and Reagents: Formulation of cell growth medium: RPMI Medium 1640+10% FBS+antibiotics, others: trypsin digestive solution, phosphate buffer (PBS), DMSO, CTG detection kit.
2.4 Experimental Procedure: • 1.4.1 Cell Thawing: Cryogenic vials were removed from the liquid nitrogen container, directly immersed in a water bath at 37° C., and shaked from time to time to thaw. The cryogenic vials were removed from the water bath at 37° C., and transferred to the biosafe cabinet. Their lids were opened, and the cell suspensions were aspirated with pipettes, added to centrifuge tubes, and then added with more than 10 volumes of culture solution, mixed well; centrifuged for 5 min at 1000 rpm; the supernatant was discarded, and medium containing cell growth was added to resuspend cells. All cell suspensions were seeded to the T25 culture flasks and static cultured in an incubator at 37° C.; the culture solution were changed once on the next day, and continued to be cultured. • 2.4.2 Cell Passaging: After cells were grown to logarithmic phase and were 80%-90% confluent, cells were removed and placed in the biosafe cabinet, the old culture solution was discarded, and the cells were wetted and washed with PBS once or twice. An appropriate amount of 0.25% Trypsin-EDTA solution was added to the culture flasks. The flasks were placed in the carbon dioxide incubator at 37° C. for 2-5 min. An appropriate amount of cell growth medium containing 10% PBS was added to terminate the digestion, lightly swished, and transferred to the centrifuge tubes and centrifuged for 5 min at 1000 rpm. The cells were prepare (into cell suspensions for passaging and experimental use. • 2.4.3 Cell Plating • 2.4.3.1 A cell suspension was prepared: After cells were grown to logarithmic phase and were 80%-90% confluent, the cells were removed to the biosafe cabinet, and the old culture solution was discarded, then the cells were wetted and washed with PBS once or twice. An appropriate amount of 0.25% Trypsin-EDTA solution was added to the culture flask. The flask was placed in a carbon dioxide incubator at 37° C. for 2-5 min. An appropriate amount of the cell growth medium containing 10% PBS was added to terminate digestion, and was lightly swished. The solution was transferred to a centrifuge tube, centrifuged for 5 min at 1000 rpm, and counted. […]

Cn1cc(-c2ccc(-c3ccc4ncc5c(c4c3)n(C3CCN(C(=O)CO)C3)c(=O)n5C)cn2)cn1 (stereo not shown) [Example 7, 1-(1-(2-hydroxyacetyl)pyrrolidin-3-yl)-3-methyl-8-(6-(1-methyl-1H-pyrazol-4-yl)pyridin-3-yl)-1H-imidazo[4,5-c]quinolin-2(3H)-one]
EC50 [1]: < 1000 nM
EC50 [2]: < 1000 nM
IC50 [3]: 100 to 1000 nM

CC(=O)N1CCC(n2c(=O)n(C)c3cnc4ccc(-c5ccc(-c6cnn(C)c6)nc5)cc4c32)C1 (stereo not shown) [Example 11, 1-(1-acetylpyrrolidin-3-yl)-3-methyl-8-(6-(1-methyl-1H-pyrazol-4-yl)pyridin-3-yl)-1H-imidazo[4,5-c]quinolin-2(3H)-one]
EC50 [1]: < 1000 nM
EC50 [2]: < 1000 nM
IC50 [3]: 100 to 1000 nM

Cn1cc(-c2ccc(-c3ccc4ncc5c(c4c3)n(C3CCN(S(=O)(=O)c4ccc(Cl)cc4)C3)c(=O)n5C)cn2)cn1 (stereo not shown) [Example 13, 1-(1-((4-chlorphenyl)sulfonyl)pyrrolidin-3-yl)-3-methyl-8-(6-(1-methyl-1H-pyrazol-4-yl)pyridin-3-yl)-1H-imidazo[4,5-c]quinolin-2(3H)-one]
EC50 [1]: < 1000 nM
EC50 [2]: < 500 nM
IC50 [3]: 100 to 1000 nM

Cc1ccc(S(=O)(=O)N2CCC(n3c(=O)n(C)c4cnc5ccc(-c6ccc(-c7cnn(C)c7)nc6)cc5c43)C2)cc1 (stereo not shown) [Example 14, 3-methyl-8-(6-(1-methyl-1H-pyrazol-4-yl)pyridin-3-yl)-1-(1-p-toluenesulfonylpyrrolidin-3-yl)-1H-imidazo[4,5-c]quinolin-2(3H)-one]
EC50 [1]: < 1000 nM
EC50 [2]: < 200 nM
IC50 [3]: 100 to 1000 nM

Cn1cc(-c2ccc(-c3ccc4ncc5c(c4c3)n(C3CCN(S(N)(=O)=O)C3)c(=O)n5C)cn2)cn1 (stereo not shown) [Example 15, 3-(3-methyl-8-(6-(1-methyl-1H-pyrazol-4-yl)pyridin-3-yl)-2-oxo-2,3-dihydro-1H-imidazo[4,5-c]quinolin-1-yl)pyrrolidine-1-sulfamide]
EC50 [1]: < 500 nM
EC50 [2]: < 1000 nM
IC50 [3]: 100 to 1000 nM

Cn1c(=O)n([C@H]2CC[C@@H](O)CC2)c2c3cc(-c4ccc(N)nc4)ccc3ncc21 [Example 26, 8-(6-aminopyridin-3-yl)1-((1s,4s)-4-hydroxycyclohexyl)-3-methyl-1H-imidazo[4,5-c]quinolin-2(3H)-one]
EC50 [4]: < 50 nM
EC50 [2]: < 200 nM
IC50 [3]: < 10 nM

CCS(=O)(=O)N1CC[C@H](n2c(=O)n(C)c3cnc4ccc(-c5ccc(-c6cnn(C)c6)nc5)cc4c32)C1 [Example 29, (S)-1-(1-(ethylsulfonyl)pyrrolidin-3-yl)-3-methyl-8-(6-(1-methyl-1H-pyrazol-4-yl)pyridin-3-yl)-1H-imidazo[4,5-c]quinolin-2(3H)-one]
EC50 [4]: < 100 nM
EC50 [2]: < 100 nM
IC50 [3]: < 10 nM

Cn1c(=O)n([C@H]2CCN(S(C)(=O)=O)C2)c2c3cc(-c4ccc(-c5ccccc5)nc4)ccc3ncc21 [Example 30, (S)-3-methyl-1-(1-(methanesulfonyl)pyrrolidin-3-yl)-8-(6-phenylpyridin-3-yl)-1H-imidazo[4,5-c]quinolin-2(3H)-one]
EC50 [4]: < 100 nM
EC50 [2]: < 100 nM
IC50 [3]: < 10 nM

[2H]C([2H])([2H])n1c(=O)n(C2CCCN(S(C)(=O)=O)C2)c2c3cc(-c4ccc(-c5cnn(C)c5)nc4)ccc3ncc21 (stereo not shown) [Example 36, 3-deuteromethyl-8-(6-(1-methyl-1H-pyrazol-4-yl)pyridin-3-yl)-1-(1-(methanesulfonyl)piperidin-3-yl)-1H-imidazo[4,5-c]quinolin-2(3H)-one]
EC50 [4]: < 200 nM
EC50 [2]: < 500 nM
IC50 [3]: < 10 nM

Cn1cc(-c2ccc(-c3ccc4ncc5c(c4n3)n(C3CCCN(S(C)(=O)=O)C3)c(=O)n5C)cn2)cn1 (stereo not shown) [Example 37, 3-methyl-8-(6-(1-methyl-1H-pyrazol-4-yl)pyridin-3-yl)-1-(1-(methanesulfonyl)piperidin-3-yl)-1H-imidazo[4,5-c][1,5]naphthyridin-2(3H)-one]
EC50 [4]: < 50 nM
EC50 [2]: < 50 nM
IC50 [3]: < 10 nM

Cn1cc(-c2ccc(-c3ccc4ncc5c(c4n3)n([C@H]3CCN(S(C)(=O)=O)C3)c(=O)n5C)cn2)cn1 [Example 38, (S)-3-methyl-8-(6-(1-methyl-1H-pyrazol-4-yl)pyridin-3-yl)-1-(1-(methanesulfonyl)pyrrolidin-3-yl)-1H-imidazol-[4,5-c][1,5]naphthyridin-2(3H)-one]
EC50 [1]: 21 nM
IC50 [3]: < 10 nM

Cn1c(=O)n([C@H]2CCN(S(C)(=O)=O)C2)c2c3nc(-c4ccc(-c5ccccc5)nc4)ccc3ncc21 [Example 39, (S)-3-methyl-1-(1-(methanesulfonyl)pyrrolidin-3-yl)-8-(6-phenylpyridin-3-yl)-1H-imidazo[4,5-c][1,5]naphthyridin-2(3H)-one]
EC50 [1]: 37 nM
IC50 [3]: < 10 nM
